From US20140322704A1, “Hepatitis Virus Culture Systems Using Stem Cell-Derived Human Hepatocyte-Like Cells and Their Methods of Use” (The Florida State University Research Foundation, Inc., priority 2011, published 2014)

Tests used:
Type in all cases: cell-based
JFH-1 based HCVcc = assay: HCVcc infection of DHHs in the presence of HCV inhibitors (FIG. 2D)
Description: FIG. 2 depicts the results of experiments assessing infection of DHHs derived from hESCs and iPSCs. (A) Detection of HCV proteins in DHHs infected with JFH-1 based HCVcc. DHHs were inoculated with three different preparations of HCVcc at day 13 post-differentiation and cell lysates collected at day 21 for western blot analysis. The anti-NS3 antibody also recognized a non-specific band in the mock infected sample. (B) Immunostaining of infected DHHs. A JFH variant containing a FLAG tag in the NS5A protein was used to infect either Huh-7.5 or DHHs and staining was done with an anti-FLAG antibody. (C) Infection of Huh-7.5 and DHHs as measured by the HCV-dependent fluorescence relocalization assay. Reporter-transduced cells were infected with HCVcc and the cells were fixed for immunofluorescence analysis 72 hours post-infection. For the RFP-NLS-IPS expressing cells, HCV infection leads to complete nuclear translocation of the RFP; for the EGFP-IPS cells, HCV infection leads to redistribution of green fluorescence from a reticulate cytoplasmic pattern to a diffused pattern with a nuclear enrichment. […] The following inhibitors were included in the infection experiments. IFN: interferon-α, 80 units/ml; AR3A: anti-E2 neutralizing antibody, 1 μg/ml; ITX: ITX5061, an SR-BI inhibitor, 1 μM. (E) Comparison of HCVcc infection levels in DHHs and PHHs. PHHs were infected for 8 days to keep the infected days the same between the two cell types (DHHs were infected at day 13 and the lysed at day 21). (F) Infection of DHHs derived from an iPSC line. Differentiation and infection of iPS.K3 were performed as described for H9-derived DHHs (FIG. 1 and FIG. 2A).
All JFH-1 based HCVcc (Mut4-6, SAV, Jc1/GLuc2A, and DEYN-Jc1/GLuc2A) were produced in Huh-7.5 cells as previously described (2005, Lindenbach, et al., Science 309:623-626). Genotype 1b HCVser was obtained from a commercial supplier (Teragenix, Ft. Lauderdale, Fla.). All infections were done by incubating virus inoculum with cells for 6-9 hours before the cells were washed and changed into the appropriate medium for the specific cell type and differentiation stage. For the time course of DHHs permissiveness, infection of each time point was allowed to proceed for exactly 48 hours before cell harvesting and western blotting. Immunofluorescence analysis of HCV receptors and intracellular antigens. Cells were fixed in 4% paraformaldehyde in phosphate-buffered saline (PBS) at room temperature for 10 minutes and blocked with PBGB (PBS containing 10% normal goat serum, and 1% bovine serum albumin (BSA)) at room temperature for 2 hours. Cells were incubated with primary antibodies (anti-CD81, anti-SR-B1, anti-claudin 1 and anti-occludin, diluted in PBG at 1:200) at 4° C. overnight or 2 hours at room temperature. […]

genotype 1b HCVser = assay: Infection of DHHs by patient serum-derived HCV, western blotting (FIG. 7A); conditions: IFN-α 50 units/ml; genotype 1b patient serum; 48 hours
Description: FIG. 7 depicts the results of experiments assessing the direct infection of DHHs by HCV derived from patient serum. (A) Detection of IFN-sensitive HCVser infection by western blotting IFN-α was included in the medium at 50 units/ml when indicated. (B) Visualization of single cell infection events by HCVser using the HCV-dependent fluorescence relocalization assay. Arrows indicate individual cells infected with HCVser and showing nuclear translocation of the RFP. (C) Secretion of HCV core antigen into culture supernatant by HCVser-infected DHHs. Values for core levels in supernatants collected 48 hours post-infection were plotted. IFN-α was included in the medium at 50 units/ml when indicated. Error bars represent standard deviation of replicate experiments. (D) HCVser preferentially infected DHHs over Huh-7.5 cells. […]
Although robust infection of PHHs by HCVcc has been reported (2010, Podevin et al., Gastroenterology 1355-1364; 2010, Ploss et al., Proc Natl Acad Sci USA 107:3141-3145; 2010, Banaudha et al., Hepatology 51:1922-1932), direct infection by HCV derived from patient serum (HCVser) remained inefficient (2010, Podevin et al., Gastroenterology. 139:1355-1364; 1998, Fournier et al., J Gen Virol. 79:2367-2374). […] In addition, secretion of HCV core antigen was detected in the supernatant of the DHHs infected by HCVser (FIG. 7C).

HCVcc = assay: Secretion of HCV core antigen into culture medium by HCVcc-infected DHHs, core ELISA (FIG. 3B); conditions: IFN-α 50 units/ml; 48 hours after infection; H9-derived DHHs
Protocol: FIG. 3 depicts the results of experiments showing that DHHs support persistent infection and secrete infectious HCV particles. (A) Continuous replication of HCVcc in DHHs. Day-10 DHHs were infected with Jc1/GLuc2A for 9 hours before the inoculum was removed and the cells were changed into medium E with or without a cyclophilin inhibitor CsA at 1 μg/ml. Culture supernatants were collected daily to measure luciferase activity. The culture media was replaced with thorough washing every 48 hours and CsA was included every time fresh media was used. Error bars represent standard deviation from triplicate experiments. (B) Secretion of HCV core antigen into the culture medium by infected DHHs. […]
To quantify miR-122 levels, TRIzol extracted RNA samples were reverse transcribed using TaqMan MicroRNA Reverse Transcription kit (Applied Biosystems) and the resulting cDNA served as templates for Real-Time PCR analysis using TaqMan MicroRNA Assay for miR-122 (Applied Biosystems). […]
To verify continuous viral replication during the infection period, the secretion of Gaussia luciferase into the culture media by the DHHs infected with the GLuc reporter virus was monitored using a procedure previously used to monitor persistent HCV infection in microscale PHHs (2010, Floss et al., Proc Natl Acad Sci USA 107:3141-3145). […]

Compound	HCV infection in DHHs (JFH-1 based HCVcc; ITX5061 1 μM)	HCV infection in DHHs (JFH-1 based HCVcc; ITX5061 1 μM, listed as small molecule compound that inhibits the scavenger receptor class B type I (SR-)	HCVser infection of DHHs detected by western blotting (genotype 1b HCVser)	HCV core antigen in the supernatant of infected cells (HCVcc)	HCV infection in DHHs (JFH-1 based HCVcc; interferon-α 80 units/ml)	HCV infection in DHHs (JFH-1 based HCVcc; interferon-α 80 units/ml, listed as IFN)
COc1c(NC(=O)C(=O)c2ccc(OCCN3CCOCC3)c3ccccc23)cc(C(C)(C)C)cc1NS(C)(=O)=O [ITX5061]	abolished HCV infection	efficiently blocked infection				
interferon-α [IFN-α]			sensitive to IFN inhibition	not in that of the similarly infected but IFN-treated cells	efficiently blocked infection	abolished HCV infection
